Here are results for two compounds from BindingDB's records for doi:10.1016/j.bmcl.2008.11.105 (Pfizer, 2009).

As a reminder, the IC50 is the concentration that gives 50% inhibition. Read a high IC50 as a need for much substance.

For the assay, the target named is T1, Protein kinase C zeta type (Homo sapiens, UniProt Q05513).
T1 sequence (Q05513 whole entry): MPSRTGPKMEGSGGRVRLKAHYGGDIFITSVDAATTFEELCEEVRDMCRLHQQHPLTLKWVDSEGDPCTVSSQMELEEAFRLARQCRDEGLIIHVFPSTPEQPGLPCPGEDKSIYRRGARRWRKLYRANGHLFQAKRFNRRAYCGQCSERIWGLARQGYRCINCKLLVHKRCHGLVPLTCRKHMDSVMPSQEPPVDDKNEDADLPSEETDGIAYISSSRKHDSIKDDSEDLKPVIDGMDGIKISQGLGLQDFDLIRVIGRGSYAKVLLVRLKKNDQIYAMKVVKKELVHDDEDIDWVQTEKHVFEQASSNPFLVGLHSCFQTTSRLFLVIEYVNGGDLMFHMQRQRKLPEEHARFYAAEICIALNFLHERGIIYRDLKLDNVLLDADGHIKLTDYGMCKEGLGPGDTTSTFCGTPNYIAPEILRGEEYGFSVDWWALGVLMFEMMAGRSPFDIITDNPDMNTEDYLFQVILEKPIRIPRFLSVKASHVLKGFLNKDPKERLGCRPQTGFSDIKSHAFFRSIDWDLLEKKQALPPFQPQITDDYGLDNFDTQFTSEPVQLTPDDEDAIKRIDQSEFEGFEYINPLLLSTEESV
Put plainly: PKC Enzyme Assay. The conditions noted are these: pH 7.5; 23 °C. How it is done:
Protein kinase C (PKC), zeta activity was measured by following the phosphorylation of a biotinylated peptide substrate in the presence of ATP using AlphaScreen technology (Perkin Elmer, Waltham, MA). The AlphaScreen assay format relies on bringing a streptavidin coated donor bead and an IgG-protein A acceptor bead into proximity through the interaction between biotinylated phosphorylated peptide and a phospho-specific antibody to the peptide. Upon excitation of the donor bead at 680 nm, excited state singlet oxygen is produced and diffuses to acceptor beads in close proximity (200 nm), activating a cascade of fluorophores resulting in emission between 520-620 nm. Kinase activity is quantified through the evaluation of this emission signal. Compounds are evaluated as potential inhibitors of the PKC kinase activity by measuring their effects on the phosphorylation of the peptide substrate. IC50 value determinations were made for potential inhibitors by testing compounds at 12 concentrations in three-fold serial dilutions with each concentration tested in triplicate. Reactions were carried out for 60 minutes at room temperature. Reactions were then quenched by addition of stop solution. […] Plates were then read on a Fusion reader after an overnight equilibrium at room temperature.

In the case of `CN1CCN(c2cccc3[nH]c(-c4n[nH]c5cc(-c6ccc7ccoc7c6)ccc45)nc23)CC1` [indazole-benzimidazole, 25], the IC50 stood at 3.02 µM.
With `CN1CCN(c2cccc3[nH]c(-c4n[nH]c5cc(-c6ccc7ncccc7c6)ccc45)nc23)CC1` [indazole-benzimidazole, 23] the figure was 6.84 µM.
